Test results taken from the METLIN SMRT retention time set (Domingo-Almenara et al. 2019).

Assay: gradient 5% acetonitrile 3 min, to 50% in 2 min, to 85% in 15 min, held 3 min, 100 µL/min
Conditions: column: Zorbax Extend-C18 2.1 x 50 mm; eluents: water / acetonitrile, 0.1% formic acid
In short: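 Pure standards were analyzed in mixtures of ~100 molecules using HPLC coupled to a quadrupole time-of-flight mass spectrometer, in both positive and negative ionization mode. Separation used a Zorbax Extend-C18 column (2.1 × 50 mm, 1.8 μm) at 100 μL/min, with water and acetonitrile each containing 0.1% formic acid. Dead and dwell volumes were 40 μL and 900 μL, and data were collected over 3 months. Retention time was read from computationally picked adduct peaks, each inspected manually.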

SMILES | RP-LC retention time [s]
COc1ccccc1NC(=O)N1C[C@@H](F)C[C@H]1C(=O)N1CCc2ccccc2C1 | 828
CCC(C)NC(=O)C1COC2(CCN(C(=O)c3ccc(F)cc3F)CC2)N1C(=O)c1ccccc1 (stereo unspecified) | 744
O=C(CCC(=O)N1CC(n2cnnc2C2CCOCC2)C1)N1CCOCC1 | 550
O=C(CN1CCN(Cc2cccc(Cl)c2)C1=O)NCCc1cccs1 | 823
O=S(=O)(c1cc(-c2nnc(C3CC3)o2)co1)N1CCCC1 | 774
O=C(CN1CCN(Cc2ccc(F)cc2Cl)C1=O)NC1CC1 | 692
CC(C)(C)c1nc(N2CCCCC2)c2ccccc2n1 | 723
CCCNc1cc(N2CCCC(CCC(=O)N3CCC(COC)CC3)C2)ncn1 (stereo unspecified) | 649
O=C(NCc1cccc(C(F)(F)F)c1)C1(CCO)CCN(c2ncccn2)C1 (stereo unspecified) | 669
CCNC(=O)N1CC(C(=O)N(C)C)C2(CCOCC2)C1 (stereo unspecified) | 520
O=C(Nc1cccc(-c2ccc(N3CCCCC3)nn2)c1)Nc1ccccc1F | 742
CCOC(=O)CC(=O)N1CCSC1COc1ccccc1OC (stereo unspecified) | 903
O=C(c1ccc(Br)cc1)N1CCc2nc[nH]c2C1 | 578
Cc1cc(C)cc(NS(=O)(=O)c2cc(-c3[nH]ncc3C(=O)N3CCCC3)oc2C)c1 | 746
CCn1c(=O)c(N2CCN(C(=O)NC3CCCCC3)CC2)nc2ccccc21 | 919
O=C(Cn1nc2c(N3CCCCCC3)nccn2c1=O)Nc1cccc(Cl)c1F | 750
C#CCCNC(=O)c1ccc(C)c(C)c1 | 720
O=C(Nc1ccc(-n2cnc(C(=O)N3CCSCC3)c2)nc1)C1CC1 | 657
Cc1ccc(C2Cn3cnc(C(=O)N4CCC(C(=O)NCc5cccs5)CC4)c3CO2)cc1 (stereo unspecified) | 756
N[C@@H]1CCCCN(c2c(F)cc3c(=O)c(C(=O)O)cn(C4CC4)c3c2Cl)C1 | 707
Cc1ccc(N2C(=O)CN(S(=O)(=O)c3ccccc3)CC2(C)C(=O)NC2CCCC2)c(C)c1 (stereo unspecified) | 983
CCN1CCN(c2cc(C(=O)O)c3cc(NC(=O)C(C)(C)C)ccc3n2)CC1 | 564
O=C(Nc1nc2c(s1)CCc1ccccc1-2)Nc1c(F)cccc1F | 914
Cc1ccccc1CN1CCN(c2ccccn2)CC1 | 566
O=C(CCc1nc(-c2ccc(N3CCCCC3)cc2)no1)N1CCC2(CC1)OCCO2 | 798

SMILES | RP-LC retention time [s]
c1cn(-c2ccc(SC3CCCC3)nn2)cn1 | 604
Cc1nnc([C@@H]2CC(F)(F)CN2C(=O)c2ccc3c(c2)OCO3)o1 | 703
O=C(Nc1ccc2c(c1)OCCO2)c1ccc(-n2cc(CNC(=O)C3CC3)cn2)cc1 | 720
CC(O)(CNC(=O)C(=O)Nc1cccc(N2CCCCC2=O)c1)c1ccccc1 (stereo unspecified) | 668
Cc1ccccc1C(=O)NCCN1CCN(c2ccc(Cl)cc2)CC1 | 610
C#CCOCC1CN(c2ccccc2)C(=O)O1 (stereo unspecified) | 833
CCc1c(C(=O)O)nnn1Cc1c(F)cccc1Cl | 742
O=C(Nc1ccc(N2CCN(C3CCCC3)C2=O)nc1)c1cccc(F)c1 | 876
CSc1ccccc1NC(=O)C(=O)NCC1CCN(C(=O)COc2ccccc2)CC1 | 754
Cn1cc(CCN2CCC(C(=O)NCc3ccccc3)CC2)c2cccnc21 | 588
CC1CCN(C(=O)CN2C(=O)COc3ccc(C(=O)N4CCCCC4)cc32)CC1 | 716
Cc1cc(NC(=O)C2CCN(C(=O)C3Sc4ccccc4NC3=O)CC2)ccc1Br (stereo unspecified) | 901
Cc1ccc(CS(=O)(=O)N2CCC(CN3CCCCCC3)CC2)cc1C | 723
O=C([C@@H]1C[C@H](F)CN1C(=O)Nc1ccc(Br)cc1)N1CCCCC1 | 725
O=C(Cn1ccc2c(SCc3ccccc3)nccc21)NCCCN1CCCC1 | 587
CCCC(C)NC(=O)c1ccc2c(c1)CCCN2S(=O)(=O)CC (stereo unspecified) | 872
CCCNC(=O)CC1CCN(C(=O)c2[nH]c(C)c(C(=O)OC)c2C)CC1 | 657
CCN1CCCn2nc(C3CCN(C(=O)C4CCCC4)CC3)cc2C1=O | 686
CCCNC(=O)C1CCCN(c2ccc(SCC(=O)NCc3ccc(C(F)(F)F)cc3)nn2)C1 (stereo unspecified) | 700
Nc1nc(F)nc2c1ncn2[C@@H]1O[C@H](COP(=O)(O)O)[C@@H](O)[C@@H]1O | 534
NC(=O)C1(N2CCCCC2)CCN(C(=O)c2cc3ccc4cccnc4c3[nH]2)CC1 | 574
Cn1cc2c3c(cccc31)CN(C(=O)c1cc(F)cc(F)c1)CC2 | 955
CCCCN1CCN(C(=O)c2c(C)sc3ccn(CC(C)C)c(=O)c23)CC1 | 632
CCCN(CC1CCOC1)C(=O)Nc1cc(C)ccc1C (stereo unspecified) | 796
CN(C)c1ccc(-c2noc(CCC(=O)N3CCC4(CC3)OCCO4)n2)cc1 | 789

Continued, values first:

RP-LC retention time [s] | SMILES
968 | Cc1sc(NC(=O)c2cccc(Cl)c2)nc1-c1ccc2c(c1)NC(=O)CO2
1110 | CC(C)CNC(=O)c1cn(-c2ccc(-c3nc(C4CC4)no3)cn2)cn1
722 | Cc1ccc(Nc2nc3ccncc3n(C(C)C)c2=O)cc1F
676 | COc1ccc(C(=O)NC2CCN(c3cc(-c4cccs4)[nH]n3)C2)cn1 (stereo unspecified)
828 | COc1ccc(-c2nc3cc(C)ccn3c2NC(=O)C(C)(C)Oc2ccc(Cl)cc2)cc1
796 | CCOc1ccc(N2CC(c3nnc(NC(=O)Cc4ccc(Cl)cc4)o3)CC2=O)cc1 (stereo unspecified)
784 | CCN(CC)C(=O)N1CC(Oc2ccccc2-c2nc(-c3cnccn3)no2)C1
732 | Cc1ccn2cc(-c3cccc(NS(=O)(=O)c4cc(C)c(C)cc4C)c3)nc2c1
615 | COc1ccc(S(=O)(=O)N(CC(=O)NO)CC(C)C)cc1
784 | CCC(C)NC(=O)c1ccc2c(c1)Sc1ncccc1C(=O)N2C(C)C (stereo unspecified)
803 | COc1ccc(NC(=O)N2CCC(n3cnc4ccc(Cl)cc4c3=O)CC2)c(OC)c1
934 | COc1ccc(-c2nc(-c3cn(Cc4cccc(F)c4)nn3)no2)c(OC)c1
614 | O=C(NCCN1CCCCC1)c1ccc2c(=O)n(-c3ccccc3)c(N3CCCC3)nc2c1
693 | COc1ccc(C(=O)NCc2c(C)noc2C)c(OC)c1
745 | COC(=O)c1ccc(C(=O)Nc2nnc(-c3ccc(Br)o3)o2)cc1
914 | CCCCn1nc2c(S(=O)(=O)N3CCc4ccccc4C3)cccn2c1=O
767 | CS(=O)(=O)N1CCC(C(=O)NCc2cccc(Oc3ccc(F)cc3)c2)CC1
1050 | Cc1cc(NC(=O)N2CCCC(C)(C(=O)NCc3ccc(F)cc3)C2)ccc1Br (stereo unspecified)
1160 | CCCn1c(=O)c(C)nc2cc(-c3noc(-c4ccc(OC)cc4)n3)ccc21
656 | CCN(CC)S(=O)(=O)c1cccc(-c2cn3ccc(C)cc3n2)c1
912 | O=C(NCCOc1ccc(F)cc1)C(=O)Nc1ccc(Cl)cn1

RP-LC retention time [s] | SMILES
1020 | COc1ccc(-c2ccc(/C=C3/SC(N4CCCCC4)=NC3=O)o2)cc1
566 | Cc1ccnc(C(=O)Nc2ccc(Nc3cc(N4CCOCC4)nc(C)n3)cc2)n1
673 | Cc1ccn2c(=O)c(C(=O)Nc3nc(C)cs3)cnc2c1
954 | CC1=NS(=O)(=O)N(C)C=C1C(=O)OCc1nc(-c2ccccc2Cl)no1
848 | CCN(CC)c1nc2ccsc2c(=O)n1CCC(=O)NCc1ccc(F)cc1F
963 | Cc1nnc(-c2ccc3ccn(CC(=O)Nc4ccccc4Cl)c3c2)o1
1180 | Cc1cc(Cl)ccc1OCc1nc(-c2ccc(NS(=O)(=O)c3cccs3)cc2)no1
656 | Cc1ccc(Nc2nc(N3CCN(CCO)CC3)nc3c2C(=O)CCC3)cc1
857 | Cc1ccc(CN2C[C@@H]3C(=O)N(Cc4ccc5c(c4)OCO5)C(=O)[C@@H]3C2)c(C)c1
711 | CSc1ccc(-c2nc3ccccn3c2Nc2ccc3c(c2)OCO3)cc1
698 | CCn1c(N)c(C(=O)NC)c(=O)c2ccc(C#C[C@@](C)(O)COC)nc21
691 | Fc1ccc(N2CCN(Cc3nnc(-c4ccccc4)o3)CC2)cc1
1080 | CCc1nc(-n2cccc2)sc1C(=O)Nc1ccc(F)cc1
723 | CCOc1ccc(CNC(=O)C2CCN(Cc3cn(CC)c4ccc(OC)cc34)CC2)cc1
747 | Cc1cc2nc(C(=O)NC(C)C)c(=O)n(C)c2cc1C
892 | COc1ccc(-c2nnc(COc3ccc(NC(=O)c4ccsc4)cc3)o2)cc1
755 | CN1C(=O)CCc2cc(NC(=O)Cc3ccccc3Cl)ccc21
559 | CC1CCN(c2ccc(CNc3nc4ccncc4n(C)c3=O)cc2)CC1
1060 | O=C(Cc1cccc(F)c1)N1CCc2nc(-c3ccc(Cl)cc3)ncc2C1
1180 | COc1ccc(-c2nc(C3CC(=O)N(c4ccc(OC)c(OC)c4)C3)no2)cc1 (stereo unspecified)
